Active and inactive are the calls of the source. No cut-off for these calls is given here.
Experiments:
[1] = molecular target: T1, Muscarinic acetylcholine receptor (Rattus norvegicus) (UniProt P08482+P08483+P08485+P08911+P10980); format: tissue-based; conditions: Neocortex; 100 nM
[2] = molecular target: T1, Muscarinic acetylcholine receptor (Rattus norvegicus); format: tissue-based; conditions: Neocortex; 1 uM
[3] = molecular target: T2, Muscarinic acetylcholine receptor M1 (Homo sapiens) (UniProt P11229); conditions: NIH3T3
T2 sequence (whole entry): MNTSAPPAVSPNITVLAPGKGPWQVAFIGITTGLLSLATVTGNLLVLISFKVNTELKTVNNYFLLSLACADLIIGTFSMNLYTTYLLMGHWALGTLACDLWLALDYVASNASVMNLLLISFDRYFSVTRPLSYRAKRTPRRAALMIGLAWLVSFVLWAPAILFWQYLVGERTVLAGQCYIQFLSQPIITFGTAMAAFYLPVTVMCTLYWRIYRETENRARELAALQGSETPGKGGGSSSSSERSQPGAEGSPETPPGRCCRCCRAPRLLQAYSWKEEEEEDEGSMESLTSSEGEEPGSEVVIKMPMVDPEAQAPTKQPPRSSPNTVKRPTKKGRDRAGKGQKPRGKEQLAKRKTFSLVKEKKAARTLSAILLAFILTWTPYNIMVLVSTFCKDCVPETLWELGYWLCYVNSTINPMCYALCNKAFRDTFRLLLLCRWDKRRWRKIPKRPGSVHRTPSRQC
Description: Agonistic efficacy in human m1 muscarinic receptor expressed with the marker gene beta-galactosidase in NIH 3T3 cells.

[4] = molecular target: Muscarinic acetylcholine receptor
Description: Binding affinity against muscarinic receptor using radioligand [3H]quinuclidinyl benzilate (QNB) binding assay in membrane preparations of rat neocortex.

[5] = molecular target: Muscarinic acetylcholine receptor; remark: listed apart in the source
Description: Binding affinity against muscarinic receptor using radioligand [3H]cis-methyldioxolane (CMD) binding assay in membrane preparations of rat neocortex.

[6] = molecular target: T3, Muscarinic acetylcholine receptor M2 (Homo sapiens) (UniProt P08172); conditions: NIH3T3
T3 sequence (whole entry): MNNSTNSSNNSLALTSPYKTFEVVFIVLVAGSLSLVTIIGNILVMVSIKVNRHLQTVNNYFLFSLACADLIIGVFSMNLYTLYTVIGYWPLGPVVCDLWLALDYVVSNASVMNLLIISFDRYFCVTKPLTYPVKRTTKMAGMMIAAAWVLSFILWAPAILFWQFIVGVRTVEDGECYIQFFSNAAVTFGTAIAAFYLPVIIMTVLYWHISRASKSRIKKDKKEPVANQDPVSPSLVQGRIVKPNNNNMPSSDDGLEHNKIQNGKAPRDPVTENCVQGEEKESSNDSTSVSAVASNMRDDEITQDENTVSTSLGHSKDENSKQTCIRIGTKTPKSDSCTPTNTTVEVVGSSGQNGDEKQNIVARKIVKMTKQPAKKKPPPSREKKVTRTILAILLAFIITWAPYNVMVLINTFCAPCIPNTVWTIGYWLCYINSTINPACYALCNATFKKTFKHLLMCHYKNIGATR
Description: Agonistic efficacy in human m2 muscarinic receptor expressed with the marker gene beta-galactosidase in NIH 3T3 cells.

[7] = molecular target: T2, Muscarinic acetylcholine receptor M1 (Homo sapiens); assay: Agonistic efficacy in human m1 muscarinic receptor which was expressed with the marker gene beta-galactosidase in NIH 3T3 cells; No data; format: functional, cell-based; conditions: NIH3T3
[8] = molecular target: Muscarinic acetylcholine receptor; format: tissue-based, Neocortex

| Compound | ED50 [3] | IC50 [4] | IC50 [5] | ED50 [6] | further results |
| --- | --- | --- | --- | --- | --- |
| C/C(C#Cc1ccc(Cl)cc1)=C\CO/N=C1/CN2CCC1C2 (configuration not stated) |  |  |  |  | inhibition [1]: 57%; inhibition [2]: 52% |
| C/C(C#Cc1ccc(F)cc1)=C/CO/N=C1\CN2CCC1C2 (configuration not stated) | 20.9 nM |  |  |  |  |
| C/C(C#Cc1ccc(Cl)cc1)=C\CO/N=C1\CN2CCC1C2 (configuration not stated) |  | 439 nM | 27.12 nM |  |  |
| C#C/C(C)=C\CO/N=C1\CN2CCC1C2 (configuration not stated) | 12 nM |  |  | 23.7 nM |  |
| C/C(C#Cc1cccs1)=C/CO/N=C1/CN2CCC1C2 (configuration not stated) | 11.6 nM | 608 nM | 4.1 nM | 2.5 nM |  |
| C/C(C#Cc1ccc(F)cc1)=C\CO/N=C1/CN2CCC1C2 (configuration not stated) | 156 nM |  |  |  |  |
| COc1ccc(C#C/C(C)=C\CO/N=C2/CN3CCC2C3)cc1 (configuration not stated) | 8.6 nM | 1992 nM | 17 nM | 10.7 nM |  |
| C/C(C#Cc1cccs1)=C/CO/N=C1\CN2CCC1C2 (configuration not stated) | 6.2 nM | 21 nM | 0.02 nM | 2.3 nM |  |
| COc1ccc(C#C/C(C)=C/CO/N=C2\CN3CCC2C3)cc1 (configuration not stated) |  | 1413 nM | 12 nM |  |  |
| C/C(C#Cc1ccc(C)cc1)=C\CO/N=C1/CN2CCC1C2 (configuration not stated) |  |  |  |  | inhibition [1]: 29%; inhibition [2]: 31% |
| COc1cccc(C#C/C(C)=C/CO/N=C2/CN3CCC2C3)c1 (configuration not stated) | 264 nM |  |  |  |  |
| COc1ccc(C#C/C(C)=C/CO/N=C2/CN3CCC2C3)cc1 (configuration not stated) |  |  |  |  | inhibition [1]: 33%; inhibition [2]: 19% |
| C/C(C#Cc1ccc(Cl)c(Cl)c1)=C\CO/N=C1\CN2CCC1C2 (configuration not stated) | 398 nM | 171 nM | 0.8 nM | 940 nM |  |
| COc1cccc(C#C/C(C)=C/CO/N=C2\CN3CCC2C3)c1 (configuration not stated) | 93.2 nM |  |  |  |  |
| C/C(C#Cc1ccc(C)cc1)=C/CO/N=C1/CN2CCC1C2 (configuration not stated) | 83.3 nM | 383 nM | 5.02 nM | 4.4 nM |  |
| C/C(C#Cc1ccccc1)=C\CO/N=C1/CN2CCC1C2 (configuration not stated) |  |  |  |  | inhibition [1]: 31%; inhibition [2]: 18% |
| COc1ccc(C#C/C(C)=C\CO/N=C2/CN3CCC2C3)cc1OC (configuration not stated) | 162 nM | 8547 nM | 4.6 nM | 0.9 nM |  |
| C/C(C#Cc1ccccc1)=C\CO/N=C1\CN2CCC1C2 (configuration not stated) |  | 1587 nM | 12.4 nM |  |  |
| C/C(C#Cc1ccc(C)cc1)=C/CO/N=C1\CN2CCC1C2 (configuration not stated) | 10.5 nM | 64 nM | 0.57 nM | 10.7 nM |  |
| COc1cccc(C#C/C(C)=C\CO/N=C2\CN3CCC2C3)c1 (configuration not stated) | 51.1 nM |  |  |  |  |

| Compound | ED50 [3] | IC50 [4] | IC50 [5] | ED50 [6] | further results |
| --- | --- | --- | --- | --- | --- |
| C/C(C#Cc1ccc(C)cc1)=C\CO/N=C1\CN2CCC1C2 (configuration not stated) |  | 681 nM | 22.16 nM |  |  |
| C/C(C#Cc1ccc(Cl)c(Cl)c1)=C/CO/N=C1\CN2CCC1C2 (configuration not stated) |  |  |  |  | inhibition [1]: 46%; inhibition [2]: 77% |
| C[N+](C)(C)CCOC(N)=O |  |  |  | 22.8 nM |  |
| C#C/C(C)=C/CO/N=C1\CN2CCC1C2 (configuration not stated) | 85 nM |  | 4 nM | 11 nM |  |
| C/C(C#Cc1ccc(Cl)cc1)=C/CO/N=C1\CN2CCC1C2 (configuration not stated) |  |  |  |  | ED50 [7]: inactive |
| C#C/C(C)=C\CO/N=C1/CN2CCC1C2 (configuration not stated) | 30 nM | 4234 nM | 12 nM | 45 nM |  |
| C/C(C#Cc1cccs1)=C\CO/N=C1/CN2CCC1C2 (configuration not stated) |  | 5593 nM | 80.47 nM |  |  |
| C/C(C#Cc1ccc(Cl)cc1)=C/CO/N=C1/CN2CCC1C2 (configuration not stated) | 29.1 nM | 81 nM | 0.45 nM | 2.8 nM |  |
| C/C(C#Cc1ccc(Cl)c(Cl)c1)=C\CO/N=C1/CN2CCC1C2 (configuration not stated) |  |  |  |  | inhibition [1]: 49%; inhibition [2]: 39% |
| COc1ccc(C#C/C(C)=C/CO/N=C2\CN3CCC2C3)cc1OC (configuration not stated) | 74 nM | 2380 nM | 5.37 nM | 1.8 nM |  |
| C/C(C#Cc1ccccc1)=C/CO/N=C1\CN2CCC1C2 (configuration not stated) |  | 44 nM | 0.15 nM |  |  |
| C/C(C#Cc1ccc(F)cc1)=C/CO/N=C1/CN2CCC1C2 (configuration not stated) | 48 nM |  |  |  |  |
| C#C/C(C)=C/CO/N=C1/CN2CCC1C2 (configuration not stated) |  | 19308 nM | 21 nM |  |  |
| C/C(C#Cc1ccccc1)=C/CO/N=C1/CN2CCC1C2 (configuration not stated) | 120 nM | 181 nM | 1.07 nM | 4.2 nM |  |
| C/C(C#Cc1cccs1)=C\CO/N=C1\CN2CCC1C2 (configuration not stated) | 0.4 nM | 968 nM | 4.96 nM | 24 nM |  |
| C/C(C#Cc1ccc(Cl)c(Cl)c1)=C/CO/N=C1/CN2CCC1C2 (configuration not stated) |  |  |  |  | inhibition [1]: 14%; inhibition [2]: 51% |
| C/C(C#Cc1ccc(F)cc1)=C\CO/N=C1\CN2CCC1C2 (configuration not stated) | 31.5 nM |  |  |  |  |
| COc1ccc(C#C/C(C)=C\CO/N=C2\CN3CCC2C3)cc1 (configuration not stated) | 8.5 nM |  | 0.1 nM | 8.9 nM | IC50 [8]: 60 nM |
| COc1ccc(C#C/C(C)=C\CO/N=C2\CN3CCC2C3)cc1OC (configuration not stated) | 55 nM | 1245 nM | 1.38 nM |  |  |
